Experimental data as given in ChEMBL document CHEMBL4261492, “Synthesis and in vitro study of novel borneol derivatives as potent inhibitors of the influenza A virus” (Medchemcomm, 2017).

How the values were obtained:
MDCK = assay: (§1) Cytotoxicity against MDCK cells after 48 hrs by MTT assay; assay type: cell-based, Canis lupus familiaris; details: dog, mdck, 48 h
Influenza A virus [1] = assay: microbe, parasite or virus in culture; details: A/Puerto Rico/8/1934(H1N1), MDCK
[2] = as §1; assay type: cell-based, Canis lupus familiaris; details: dog, MDCK cells
in vitro = details: dog, MDCK cells, Ratio CC50/EC50
Influenza A virus [3] = details: mdck

Structure (SMILES)	CC50 (MDCK)	IC50 (Influenza A virus [1])	CC50 at 48 h [2]	selectivity ratio (in vitro)	IC50 (Influenza A virus [3])
CCOC(=O)CN1CCOCC1	> 1730 µM	983 µM	–	–	–
CC1(C)[C@H]2CC[C@]1(C)[C@H](OC(=O)CN1CCNCC1)C2	–	3.2 µM	51.6 µM	16	–
CC1(C)[C@H]2CC[C@]1(C)[C@H](OC(=O)CCN1CCOCC1)C2	552 µM	12.2 µM	–	45	–
CN1CCN(CCC(=O)O[C@@H]2C[C@@H]3CC[C@@]2(C)C3(C)C)CC1	48.1 µM	1.9 µM	–	25	–
CC1(C)[C@H]2CC[C@]1(C)[C@H](OC(=O)CN1CCOCC1)C2	580 µM	7.1 µM	–	82	–
CC1(C)[C@H]2CC[C@]1(C)[C@H](OC(=O)CCN1CCCCC1)C2	69.6 µM	7.8 µM	–	–	–
CC1(C)[C@H]2CC[C@]1(C)[C@H](OC(=O)CCN1CCNCC1)C2	12.6 µM	6.8 µM	–	2	–
CCN1CCN(CCC(=O)O[C@@H]2C[C@@H]3CC[C@@]2(C)C3(C)C)CC1	105 µM	8.4 µM	–	12	–
CN1CCN(CC(=O)O[C@@H]2C[C@@H]3CC[C@@]2(C)C3(C)C)CC1	–	7.1 µM	103 µM	14	–
CCCCN(CCCC)CC(=O)O[C@@H]1C[C@@H]2CC[C@@]1(C)C2(C)C	69.3 µM	> 34.1 µM	–	–	–
CC1(C)[C@H]2CC[C@]1(C)[C@@H](OC(=O)CCN1CCOCC1)C2	508 µM	7.8 µM	–	65	–
CC1CCN(CC(=O)O[C@@H]2C[C@@H]3CC[C@@]2(C)C3(C)C)CC1	93.9 µM	10.2 µM	–	9	–
CCCCN(CCCC)CCC(=O)O[C@@H]1C[C@@H]2CC[C@@]1(C)C2(C)C	41.8 µM	7.1 µM	–	6	–
CC1(C)[C@H]2CC[C@]1(C)[C@H](OC(=O)CCN1CCCC1)C2	125 µM	14.3 µM	–	9	–
CC1(C)[C@H]2CC[C@]1(C)[C@H](OC(=O)CN1CCCC1)C2	302 µM	34 µM	–	9	–
CC1(C)[C@H]2CC[C@]1(C)[C@@H](OC(=O)CN1CCOCC1)C2	> 534 µM	73.7 µM	–	–	–
CCN1CCN(CC(=O)O[C@@H]2C[C@@H]3CC[C@@]2(C)C3(C)C)CC1	–	4.4 µM	100 µM	23	–
CCOC(=O)N1CCN(CC(=O)O[C@@H]2C[C@@H]3CC[C@@]2(C)C3(C)C)CC1	> 852 µM	683 µM	–	1	–
COC(=O)CN1CCOCC1	> 1890 µM	> 1890 µM	–	–	–
CC1CCN(CCC(=O)O[C@@H]2C[C@@H]3CC[C@@]2(C)C3(C)C)CC1	56.4 µM	15.3 µM	–	4	–
CC1(C)[C@H]2CC[C@]1(C)[C@H](OC(=O)CN1CCCCC1)C2	138 µM	15.1 µM	–	9	–
CCOC(=O)N1CCN(CCC(=O)O[C@@H]2C[C@@H]3CC[C@@]2(C)C3(C)C)CC1	150 µM	> 98.4 µM	–	2	–
CC1(C)[C@H]2CC[C@]1(C)[C@@H](O)C2 (stereo in doubt; 1)	> 2140 µM	–	–	–	–
CC1(C)[C@H]2CC[C@]1(C)[C@@H](O)C2 (stereo in doubt; 22)	> 974 µM	–	–	–	> 974 µM
NC12CC3CC(CC(C3)C1)C2 [AMANTADINE]	–	64.2 µM	–	4	–
CCOC(=O)C1=C[C@@H](OC(CC)CC)[C@H](NC(C)=O)[C@@H](N)C1 [OSELTAMIVIR]	160 µM	–	–	–	–
NC(=O)c1ncn([C@@H]2O[C@H](CO)[C@@H](O)[C@H]2O)n1 [RIBAVIRIN]	> 2000 µM	24.6 µM	–	> 81	–
CC(N)C12CC3CC(CC(C3)C1)C2 (configuration not stated) [RIMANTADINE]	–	67 µM	–	5	–
